According to patent publication US6495591B1, “Fungal efflux pump inhibitors” (Essential Therapeutics, Inc., priority 1997, dated 2002):
Like-named read-outs stand apart in the source and are kept apart here.

Tests used:
[1] = biological target: pCDRI (ABC) efflux pump in S. cerevisiae YEM-1 (Candida albicans, UniProt P43071); assay: cell-based; type: cell-based, C. albicans
[2] = biological target: pCDR2 (ABC) efflux pump in S. cerevisiae YEM-37 (Candida albicans, UniProt P78595); assay: cell-based; type: cell-based, C. albicans
Chain of pCDR2 (ABC) efflux pump in S. cerevisiae YEM-37 (P78595 whole entry): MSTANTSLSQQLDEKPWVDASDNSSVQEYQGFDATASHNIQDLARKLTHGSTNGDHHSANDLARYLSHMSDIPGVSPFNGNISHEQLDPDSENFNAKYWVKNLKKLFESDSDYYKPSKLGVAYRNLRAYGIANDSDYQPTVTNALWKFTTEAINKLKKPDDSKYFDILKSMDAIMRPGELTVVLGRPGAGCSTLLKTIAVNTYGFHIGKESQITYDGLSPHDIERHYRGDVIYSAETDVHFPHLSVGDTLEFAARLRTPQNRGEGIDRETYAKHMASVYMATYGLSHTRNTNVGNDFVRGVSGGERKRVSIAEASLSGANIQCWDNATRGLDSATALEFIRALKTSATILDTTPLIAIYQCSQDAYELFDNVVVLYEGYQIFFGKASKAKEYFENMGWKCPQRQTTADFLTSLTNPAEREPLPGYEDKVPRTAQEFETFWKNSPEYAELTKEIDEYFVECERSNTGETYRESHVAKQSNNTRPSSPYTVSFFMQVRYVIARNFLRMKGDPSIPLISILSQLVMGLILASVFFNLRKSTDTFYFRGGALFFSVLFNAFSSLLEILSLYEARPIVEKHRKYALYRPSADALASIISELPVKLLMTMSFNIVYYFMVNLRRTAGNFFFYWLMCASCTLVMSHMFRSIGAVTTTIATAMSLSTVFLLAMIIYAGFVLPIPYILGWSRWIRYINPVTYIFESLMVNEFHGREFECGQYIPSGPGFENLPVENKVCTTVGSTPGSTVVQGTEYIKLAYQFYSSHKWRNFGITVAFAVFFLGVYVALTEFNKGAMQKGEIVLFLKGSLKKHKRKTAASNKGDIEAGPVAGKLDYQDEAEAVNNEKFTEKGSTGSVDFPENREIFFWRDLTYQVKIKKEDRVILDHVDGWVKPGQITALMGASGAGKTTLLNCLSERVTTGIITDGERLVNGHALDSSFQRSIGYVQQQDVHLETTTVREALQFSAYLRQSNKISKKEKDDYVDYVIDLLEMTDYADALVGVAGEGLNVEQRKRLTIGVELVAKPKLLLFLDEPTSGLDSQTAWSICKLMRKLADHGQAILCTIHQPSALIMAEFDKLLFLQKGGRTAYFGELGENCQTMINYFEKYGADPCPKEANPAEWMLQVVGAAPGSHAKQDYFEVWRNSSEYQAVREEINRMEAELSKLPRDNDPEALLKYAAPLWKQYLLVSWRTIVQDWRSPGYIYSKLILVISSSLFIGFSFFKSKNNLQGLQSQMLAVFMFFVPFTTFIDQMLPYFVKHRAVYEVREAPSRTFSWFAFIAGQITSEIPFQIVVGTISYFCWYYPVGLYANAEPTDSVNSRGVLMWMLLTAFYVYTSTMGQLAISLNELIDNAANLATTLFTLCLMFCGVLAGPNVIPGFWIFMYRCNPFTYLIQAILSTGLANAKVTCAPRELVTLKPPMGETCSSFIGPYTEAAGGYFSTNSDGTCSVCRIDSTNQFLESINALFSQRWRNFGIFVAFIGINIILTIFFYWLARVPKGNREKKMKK

[3] = biological target: pCgCDR (ABC) efflux pump in S. cerevisiae YEM-39 (Candida glabrata, UniProt Q6FK23); assay: cell-based; type: cell-based, C. glabrata
Chain of pCgCDR (ABC) efflux pump in S. cerevisiae YEM-39 (Q6FK23 whole entry): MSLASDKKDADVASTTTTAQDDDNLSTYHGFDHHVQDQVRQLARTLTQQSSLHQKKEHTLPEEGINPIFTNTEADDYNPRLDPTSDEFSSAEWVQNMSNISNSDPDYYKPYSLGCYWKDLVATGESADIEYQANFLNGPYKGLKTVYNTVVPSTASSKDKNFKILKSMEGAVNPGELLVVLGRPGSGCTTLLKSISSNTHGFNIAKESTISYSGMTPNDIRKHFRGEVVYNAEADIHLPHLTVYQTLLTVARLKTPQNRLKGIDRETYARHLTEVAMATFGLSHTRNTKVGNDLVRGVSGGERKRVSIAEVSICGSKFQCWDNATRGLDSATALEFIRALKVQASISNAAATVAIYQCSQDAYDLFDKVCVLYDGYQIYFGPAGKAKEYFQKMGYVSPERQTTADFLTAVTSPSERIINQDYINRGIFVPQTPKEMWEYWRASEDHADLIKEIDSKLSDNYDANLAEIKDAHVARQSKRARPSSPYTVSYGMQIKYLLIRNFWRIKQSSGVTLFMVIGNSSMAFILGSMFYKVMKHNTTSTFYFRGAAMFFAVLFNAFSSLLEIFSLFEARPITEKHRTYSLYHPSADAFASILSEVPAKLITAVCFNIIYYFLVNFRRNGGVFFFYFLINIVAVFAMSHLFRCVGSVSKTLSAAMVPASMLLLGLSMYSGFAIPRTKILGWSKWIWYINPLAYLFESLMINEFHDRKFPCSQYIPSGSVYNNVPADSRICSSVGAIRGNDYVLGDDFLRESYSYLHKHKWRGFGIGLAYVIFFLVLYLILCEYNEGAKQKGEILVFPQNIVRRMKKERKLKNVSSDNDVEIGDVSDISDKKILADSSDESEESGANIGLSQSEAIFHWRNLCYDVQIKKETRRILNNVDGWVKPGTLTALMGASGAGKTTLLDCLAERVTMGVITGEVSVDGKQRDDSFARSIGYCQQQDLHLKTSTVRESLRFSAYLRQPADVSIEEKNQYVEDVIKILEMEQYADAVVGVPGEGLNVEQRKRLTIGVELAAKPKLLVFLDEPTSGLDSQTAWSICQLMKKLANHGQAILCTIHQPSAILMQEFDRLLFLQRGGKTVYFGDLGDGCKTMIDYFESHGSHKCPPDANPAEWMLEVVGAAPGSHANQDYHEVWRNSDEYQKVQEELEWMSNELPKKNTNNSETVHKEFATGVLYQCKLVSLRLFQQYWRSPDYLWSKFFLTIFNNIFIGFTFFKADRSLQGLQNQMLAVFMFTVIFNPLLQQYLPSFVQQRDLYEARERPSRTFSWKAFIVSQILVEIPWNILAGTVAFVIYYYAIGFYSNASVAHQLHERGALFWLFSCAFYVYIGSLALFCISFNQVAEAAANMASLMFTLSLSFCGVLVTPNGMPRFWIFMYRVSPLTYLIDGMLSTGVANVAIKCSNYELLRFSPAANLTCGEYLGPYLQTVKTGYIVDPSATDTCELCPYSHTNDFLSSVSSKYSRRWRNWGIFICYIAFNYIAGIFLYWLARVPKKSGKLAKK

[4] = biological target: pBEN (MF) efflux pump in S. cerevisiae YEM-2 (Candida albicans, UniProt P28873); assay: cell-based; type: cell-based, C. albicans
[5] = biological target: pFLU (MF) efflux pump in S. cerevisiae YEM-38 (Candida albicans, UniProt G1UB37); assay: cell-based; type: cell-based, C. albicans
Chain of pFLU (MF) efflux pump in S. cerevisiae YEM-38 (G1UB37 whole entry): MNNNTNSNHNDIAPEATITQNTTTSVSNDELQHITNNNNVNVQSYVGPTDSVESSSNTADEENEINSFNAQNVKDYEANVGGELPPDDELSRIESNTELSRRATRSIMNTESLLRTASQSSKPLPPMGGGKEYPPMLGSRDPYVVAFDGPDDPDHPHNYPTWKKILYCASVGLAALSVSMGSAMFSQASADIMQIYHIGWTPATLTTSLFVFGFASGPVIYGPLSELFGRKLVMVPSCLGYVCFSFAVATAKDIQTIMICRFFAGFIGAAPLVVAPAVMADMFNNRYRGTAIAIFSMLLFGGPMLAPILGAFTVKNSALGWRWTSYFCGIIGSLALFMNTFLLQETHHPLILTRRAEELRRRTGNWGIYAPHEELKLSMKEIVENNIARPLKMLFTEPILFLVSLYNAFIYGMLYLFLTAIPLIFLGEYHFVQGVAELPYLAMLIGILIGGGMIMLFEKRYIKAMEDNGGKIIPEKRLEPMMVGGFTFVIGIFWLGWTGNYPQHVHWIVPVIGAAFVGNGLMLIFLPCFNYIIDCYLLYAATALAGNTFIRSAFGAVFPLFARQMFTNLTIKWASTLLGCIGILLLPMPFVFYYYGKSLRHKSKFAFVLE

[6] = tested on: pCgBEN (MF) efflux pump in S. cerevisiae YEM-40; type: cell-based, C. glabrata; conditions: YEM-40 pCgBEN; fluconazole fixed at FLUhalf 2.8
[7] = tested on: YEM 13 C. albicans BEN up; assay: microbe, parasite or virus in culture; type: cell-based; conditions: YEM 13, 24 hrs, 80% inhibition; for MIC of compound in the presence of fluconazole (+): 1/8 × MIC of fluconazole
[8] = tested on: YEM 15 C. albicans, CDR1CDR2 up; assay: microbe, parasite or virus in culture; type: cell-based; conditions: YEM 15, 24 hrs, 80% inhibition; for MIC of compound in the presence of fluconazole (+): 1/8 × MIC of fluconazole
YEM 53 C. krusei = assay: FEPI MIC with/without 1/8 fluconazole MIC at 24 hrs (Table 11); type: cell-based; conditions: for MIC of compound in the absence of fluconazole (−): YEM 53, 24 hrs, 80% inhibition
[9] = tested on: YEM 17 C. glabrata, CgCDR up; type: cell-based; conditions: 24 hrs, 80% inhibition; for MIC of compound in the presence of fluconazole (+): 1/8 × MIC of fluconazole
YEM 51 C. glabrata wt = assay: FEPI MIC with/without 1/8 fluconazole MIC at 24 hrs (Table 11); type: cell-based; conditions: for MIC of compound in the absence of fluconazole (−): YEM 51, 24 hrs, 80% inhibition
YEM 30 C. albicans wt = assay: as above; type: cell-based; conditions: for MIC of compound in the absence of fluconazole (−): YEM 30, 24 hrs, 80% inhibition
[10] = tested on: YEM 24 C. albicans ΔCDR1, ΔCDR2; assay: microbe, parasite or virus in culture; type: cell-based; conditions: YEM 24, 24 hrs, 80% inhibition; for MIC of compound in the presence of fluconazole (+): 1/8 × MIC of fluconazole
[11] = tested on: YEM 27 C. albicans ΔCDR1ΔCDR2 ΔBENΔFLU1; assay: microbe, parasite or virus in culture; type: cell-based; conditions: YEM 27, 24 hrs, 80% inhibition; for MIC of compound in the presence of fluconazole (+): 1/8 × MIC of fluconazole
Aspergillus fumigatus = assay: FEPI MICs in combination with 1/4 the azole's MIC (Table 12); type: cell-based; conditions: for FEPI MIC with itraconazole, 60% Inh / FEPI MIC with itraconazole, 80% Inh: itraconazole 0.063 μg/ml (1/4 MIC); for FEPI MIC with itraconazole, 60% Inh / FEPI MIC with ketoconazole, 60% Inh: 60% inhibition; for FEPI MIC with itraconazole, 80% Inh / FEPI MIC with ketoconazole, 80% Inh / FEPI MIC (alone): 80% inhibition; for FEPI MIC with ketoconazole, 60% Inh / FEPI MIC with ketoconazole, 80% Inh: ketoconazole 4 μg/ml (1/4 MIC); for FEPI MIC (alone): no azole, 35° C., CM Broth
Experimental: The combinations were tested against a series of Candida strain with known expression of efflux pumps or with complete deletion of all known pumps and Aspergillus fumigatus. Results are reported as minimum inhibitory concentration (MIC) of […] in the presence or absence of […]. A total of 27 distinct milbemycins were studied.

Chain of pCDRI (ABC) efflux pump in S. cerevisiae YEM-1 (P43071 whole entry): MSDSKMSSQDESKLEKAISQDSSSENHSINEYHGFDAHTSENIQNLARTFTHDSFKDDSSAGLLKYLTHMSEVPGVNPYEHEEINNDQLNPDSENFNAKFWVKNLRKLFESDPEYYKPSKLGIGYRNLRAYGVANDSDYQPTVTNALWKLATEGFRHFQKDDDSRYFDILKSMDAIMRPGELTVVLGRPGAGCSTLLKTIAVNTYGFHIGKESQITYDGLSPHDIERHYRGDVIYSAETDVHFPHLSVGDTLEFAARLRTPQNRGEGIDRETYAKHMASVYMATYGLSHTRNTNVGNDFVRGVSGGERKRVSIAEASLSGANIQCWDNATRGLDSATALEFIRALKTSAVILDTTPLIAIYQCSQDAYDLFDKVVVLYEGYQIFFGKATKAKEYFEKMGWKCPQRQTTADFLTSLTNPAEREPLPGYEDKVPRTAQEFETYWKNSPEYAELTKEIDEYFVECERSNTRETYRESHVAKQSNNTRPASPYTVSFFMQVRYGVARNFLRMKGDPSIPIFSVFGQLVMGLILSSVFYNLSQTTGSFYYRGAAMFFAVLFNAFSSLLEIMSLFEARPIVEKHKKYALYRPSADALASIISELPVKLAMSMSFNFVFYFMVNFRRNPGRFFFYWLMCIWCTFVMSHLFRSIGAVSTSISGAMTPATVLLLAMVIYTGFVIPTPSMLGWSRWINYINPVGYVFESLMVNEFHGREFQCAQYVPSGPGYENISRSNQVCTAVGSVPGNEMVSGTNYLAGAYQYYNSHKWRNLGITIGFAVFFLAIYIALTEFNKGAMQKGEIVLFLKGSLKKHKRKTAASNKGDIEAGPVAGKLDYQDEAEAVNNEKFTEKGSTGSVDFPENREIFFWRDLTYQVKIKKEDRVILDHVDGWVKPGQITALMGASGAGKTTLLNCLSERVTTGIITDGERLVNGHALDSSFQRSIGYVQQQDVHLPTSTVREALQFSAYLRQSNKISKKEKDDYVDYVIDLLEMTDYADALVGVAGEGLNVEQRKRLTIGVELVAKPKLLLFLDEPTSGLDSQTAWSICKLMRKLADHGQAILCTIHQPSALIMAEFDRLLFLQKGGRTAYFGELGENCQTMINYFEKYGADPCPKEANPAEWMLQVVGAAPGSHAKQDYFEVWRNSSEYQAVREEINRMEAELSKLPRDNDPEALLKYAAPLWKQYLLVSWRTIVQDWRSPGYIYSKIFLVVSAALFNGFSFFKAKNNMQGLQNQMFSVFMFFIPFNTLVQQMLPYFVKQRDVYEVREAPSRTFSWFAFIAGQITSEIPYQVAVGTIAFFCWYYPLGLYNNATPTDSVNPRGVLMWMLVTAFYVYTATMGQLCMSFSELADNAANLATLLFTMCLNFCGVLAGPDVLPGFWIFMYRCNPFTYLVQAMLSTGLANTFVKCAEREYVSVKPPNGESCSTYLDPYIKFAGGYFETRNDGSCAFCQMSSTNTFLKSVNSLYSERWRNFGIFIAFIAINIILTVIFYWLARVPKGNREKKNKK

| Compound | FEPIhalf (concentration needed to reduce activity of efflux pump by 50%) [6] | MIC of compound in the presence of fluconazole (+) [7] [µg/mL] | MIC of compound in the absence of fluconazole (−) [7] [µg/mL] | MIC of compound in the presence of fluconazole (+) [8] [µg/mL] | MIC of compound in the absence of fluconazole (−) [8] [µg/mL] | MIC of compound in the presence of fluconazole (+) (YEM 53 C. krusei) [µg/mL] | MIC of compound in the absence of fluconazole (−) (YEM 53 C. krusei) [µg/mL] | MIC of compound in the presence of fluconazole (+) [9] [µg/mL] | MIC of compound in the absence of fluconazole (−) [9] [µg/mL] | MIC of compound in the presence of fluconazole (+) (YEM 51 C. glabrata wt) [µg/mL] | MIC of compound in the absence of fluconazole (−) (YEM 51 C. glabrata wt) [µg/mL] | MIC of compound in the presence of fluconazole (+) (YEM 30 C. albicans wt) | MIC of compound in the absence of fluconazole (−) (YEM 30 C. albicans wt) [µg/mL] | MIC of compound in the presence of fluconazole (+) [10] [µg/mL] | MIC of compound in the absence of fluconazole (−) [10] [µg/mL] | MIC of compound in the presence of fluconazole (+) [11] [µg/mL] | MIC of compound in the absence of fluconazole (−) [11] [µg/mL] | FEPI MIC with fluconazole, 60% Inh (Aspergillus fumigatus) | FEPI MIC with fluconazole, 80% Inh (Aspergillus fumigatus) | FEPI MIC with itraconazole, 60% Inh (Aspergillus fumigatus) | other results |
| --- | --- | --- | --- | --- | --- | --- | --- | --- | --- | --- | --- | --- | --- | --- | --- | --- | --- | --- | --- | --- | --- |
| CCCCC(C)C(=O)OC1[C@@H](O)[C@]2(C[C@@H]3C[C@@H](C/C=C(\C)C[C@@H](C)/C=C/C=C4\CO[C@@H]5[C@H](OC)C(C)=CC(C(=O)O3)[C@]45O)O2)O[C@H](C)[C@H]1C (stereo partly drawn) [Compound 9, Milbemycin α6] | >64 | > 64 | > 64 | 0.125 | > 64 | > 64 | > 64 | 0.5 | > 64 | 1 | > 64 | ≦0.03 | > 64 | > 64 | > 64 | > 64 | > 64 | 64 | >64 | 1 | IC50 ([1]; read-out: FEPIhalf (concentration needed to reduce activity of efflux pump by 50%), YEM-1 pCDRI, fluconazole fixed at FLUhalf 5.6): 2.91 µM; IC50 ([2]; read-out: FEPIhalf (concentration needed to reduce activity of efflux pump by 50%), YEM-37 pCDR2, fluconazole fixed at FLUhalf 1): > 93.2 µM; IC50 ([3]; read-out: FEPIhalf (concentration needed to reduce activity of efflux pump by 50%), YEM-39 pCgCDR, fluconazole fixed at FLUhalf 4): 1.46 µM; IC50 ([4]; read-out: FEPIhalf (concentration needed to reduce activity of efflux pump by 50%), YEM-2 pBEN, fluconazole fixed at FLUhalf 5.6): > 93.2 µM; IC50 ([5]; read-out: FEPIhalf (concentration needed to reduce activity of efflux pump by 50%), YEM-38 pFLU, fluconazole fixed at FLUhalf 2): > 93.2 µM; FEPI MIC with itraconazole, 80% Inh (Aspergillus fumigatus): >64; FEPI MIC with ketoconazole, 60% Inh (Aspergillus fumigatus): ≦0.063; FEPI MIC with ketoconazole, 80% Inh (Aspergillus fumigatus): ≦0.063; FEPI MIC (alone) (Aspergillus fumigatus): >64 |
| CC1=C[C@H]2C(=O)O[C@H]3C[C@@H](C/C=C(\C)C[C@@H](C)/C=C/C=C4\CO[C@H]([C@@H]1O)[C@@]42O)O[C@]1(C3)C[C@H](O)[C@H](C)[C@@H](/C(C)=C/C(C)C)O1 [Compound 15, LL-F2849α (nemedectinα)] | >64 | > 64 | > 64 | 0.5 | > 64 | > 64 | > 64 | 2 | > 64 | 4 | > 64 | ≦0.03 | > 64 | > 64 | > 64 | > 64 | > 64 | 0.25 | >64 | 1 | IC50 [1]: 3.26 µM; IC50 [2]: 1.63 µM; IC50 [3]: 6.53 µM; IC50 [4]: > 104 µM; IC50 [5]: > 104 µM; FEPI MIC with itraconazole, 80% Inh (Aspergillus fumigatus): >64; FEPI MIC with ketoconazole, 60% Inh (Aspergillus fumigatus): 0.25; FEPI MIC with ketoconazole, 80% Inh (Aspergillus fumigatus): 0.25; FEPI MIC (alone) (Aspergillus fumigatus): >64 |
